Results from PMC11997307, “Rat Sarcoma (RAS)-Protein-Targeting Synthetic Cell-Penetrating Peptide as an Anticancer Biomaterial” (Biomaterials Research, 2025).

Experiments:
[1] = system: MDA-MB-231 cells; assay: Sphere formation assay; type: cell-based, human
Description: The sphere formation potential of the cells was evaluated under nonadherent culture conditions. The cells were cultured in ultralow-attachment 6-well plates (Corning Life Sciences, MA, USA) at a density of 2 × 10^3 cells per well, since the low overall viability of […] prevents the use of single-cell culture methods. The cells were grown in DMEM/F12 (Invitrogen, CA, USA) supplemented with B27 serum-free supplement (1:50; Invitrogen, CA, USA), human recombinant epidermal growth factor (EGF), and 50 ng/ml human recombinant basic fibroblast growth factor (PeproTech, NJ, USA) with 100 μM peptides at 37 °C with 5% CO2. Fresh medium was added every 3 to 4 d, and sphere formation was monitored. The experiment was terminated on day 10, and the number of spheres (>50 μm) was quantified.

[2] = system: MDA-MB-231 cells; assay: Transwell migration assay; type: cell-based, human; conditions: MDA-MB-231, Transwell 8-μm pore, 200 μM RBP, 6 h
Description: To assess MDA-MB-231 cell migration, 2 methods were employed: a Transwell migration assay and a scratch assay. For the Transwell migration assay, 24-well Transwell plates (8-μm pore size; Costar, Corning Incorporated, Corning, NY, USA) were used to evaluate the invasive potential of the cells. […] Following a 6-h incubation period, nonmigratory cells were carefully removed from the upper surface of the membrane using a PBS-soaked cotton swab. The cells that successfully migrated through the membrane were fixed in methanol for 10 min, and Giemsa staining was used to visualize them. Images were captured using an Olympus DP72 camera at ×100 magnification, and the number of migrated cells in the treated samples was compared with that in the control samples. For the scratch assay, MDA-MB-231 cells (1 × 10^6 cells) were cultured in 6-well plates until they reached confluence. The cells were rinsed with PBS and incubated overnight in serum-free medium. A sterile 200-μl plastic pipette tip was used to create a linear scratch in the center of the monolayer. […] Images were taken immediately after scratching and again after 6, 24, 48, and 72 h of incubation using an Olympus CKX41 inverted microscope at ×20 magnification to evaluate the distance the cells migrated from the wound edge.

[3] = molecular target: T1, integrin alpha 3 (Homo sapiens, UniProt P26006); assay: SPR (Biacore) binding of RBP to immobilized integrin alpha 3 (selectivity control); conditions: CM5 chip, integrin alpha 3 immobilized, 11 concentrations of RBP
T1 sequence (P26006 33-1051): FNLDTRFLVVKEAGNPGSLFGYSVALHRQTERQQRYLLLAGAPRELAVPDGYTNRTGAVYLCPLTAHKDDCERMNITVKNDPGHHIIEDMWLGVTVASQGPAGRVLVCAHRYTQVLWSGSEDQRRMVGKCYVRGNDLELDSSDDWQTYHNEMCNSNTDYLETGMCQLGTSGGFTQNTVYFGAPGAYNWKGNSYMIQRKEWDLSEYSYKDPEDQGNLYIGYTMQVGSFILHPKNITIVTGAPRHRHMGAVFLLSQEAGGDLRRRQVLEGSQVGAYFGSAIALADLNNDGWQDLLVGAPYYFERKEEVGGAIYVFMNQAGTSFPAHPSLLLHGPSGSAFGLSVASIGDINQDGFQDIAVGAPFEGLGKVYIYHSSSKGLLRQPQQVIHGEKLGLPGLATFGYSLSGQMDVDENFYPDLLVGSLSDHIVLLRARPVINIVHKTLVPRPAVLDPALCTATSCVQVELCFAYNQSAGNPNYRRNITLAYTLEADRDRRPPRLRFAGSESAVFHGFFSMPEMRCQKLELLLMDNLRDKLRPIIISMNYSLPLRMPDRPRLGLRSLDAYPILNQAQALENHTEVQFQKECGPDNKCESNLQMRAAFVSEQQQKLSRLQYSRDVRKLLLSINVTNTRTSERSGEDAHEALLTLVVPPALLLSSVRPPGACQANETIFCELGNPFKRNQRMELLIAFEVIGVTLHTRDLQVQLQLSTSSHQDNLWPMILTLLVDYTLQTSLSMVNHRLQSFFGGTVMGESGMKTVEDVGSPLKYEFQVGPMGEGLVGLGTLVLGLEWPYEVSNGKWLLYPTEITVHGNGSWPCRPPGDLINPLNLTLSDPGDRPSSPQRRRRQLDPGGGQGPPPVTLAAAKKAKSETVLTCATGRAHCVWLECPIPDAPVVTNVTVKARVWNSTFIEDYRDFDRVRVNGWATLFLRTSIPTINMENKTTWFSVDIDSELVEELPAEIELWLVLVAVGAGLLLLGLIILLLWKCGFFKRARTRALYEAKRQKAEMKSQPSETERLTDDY
Description: N-Hydroxysuccinimide (NHS) and EDC were used as cross-linkers. The remaining unreacted active groups on the dextran surface were blocked with ethanolamine. The running buffer consisted of 150 mM NaCl, 5 mM EDTA, and 0.05% Tween 20 in 10 mM Hepes, pH 7.4. A CM5 chip without immobilized protein was used as the blank surface in the Biacore assay (Biacore T100, GE Healthcare Bio-Sciences AB, Uppsala, Sweden). […] The dissociation phase was conducted for 5 min.

Structure (SMILES): C[C@@H](O)[C@H](NC(=O)[C@H](CO)NC(=O)[C@H](CS)NC(=O)[C@H](CCCCN)NC(=O)CN)C(=O)N[C@@H](CCCNC(=N)N)C(=O)NCC(=O)N[C@@H](CCCNC(=N)N)C(=O)N[C@@H](CCCCN)C(=O)N[C@@H](CS)C(=O)N[C@@H](CS)C(=O)N[C@@H](CCCNC(=N)N)C(=O)N[C@@H](CCCNC(=N)N)C(=O)N[C@@H](CCCCN)C(=O)N[C@@H](CCCCN)C(N)=O [RBP]
- spherical colonies observed in RBP-treated groups ([1]; MDA-MB-231, serum-free medium with growth factors, nonadherent conditions, after 3 d (Fig. 2C legend)): no colonies >30 μm in diameter were observed
- sphere proliferation vs control ([1]; MDA-MB-231, ultralow-attachment plates, 100 μM peptide added on the first day, 10 d): significantly suppressed
- reduction of cell invasion vs NT group [2]: 70%
- binding to unrelated receptor integrin alpha 3 [3]: did not bind
